From patent publication US20250137032A1, “TWO-COMPONENT SYSTEMS FOR USE IN CELL-FREE GENE EXPRESSION” (priority 2023, published 2025)
“Also recorded” adds a separate entry of the source.

What was measured:
NarX [1] = target: T1, NarX (Escherichia coli, UniProt P0AFA2, T450I/V366A); assay: Cell-free NarX-L nitrate sensing, nanoluciferase reporter luminescence; format: biochemical, E. coli
T1 construct: All genes were; made in house; host or cells: cell-free expression in situ, myTXTL E. coli extract (Arbor Biosciences), with synthetic lipid vesicles
T1 sequence (P0AFA2 other isoform, or with tags, fused parts or gaps V366A/T450I): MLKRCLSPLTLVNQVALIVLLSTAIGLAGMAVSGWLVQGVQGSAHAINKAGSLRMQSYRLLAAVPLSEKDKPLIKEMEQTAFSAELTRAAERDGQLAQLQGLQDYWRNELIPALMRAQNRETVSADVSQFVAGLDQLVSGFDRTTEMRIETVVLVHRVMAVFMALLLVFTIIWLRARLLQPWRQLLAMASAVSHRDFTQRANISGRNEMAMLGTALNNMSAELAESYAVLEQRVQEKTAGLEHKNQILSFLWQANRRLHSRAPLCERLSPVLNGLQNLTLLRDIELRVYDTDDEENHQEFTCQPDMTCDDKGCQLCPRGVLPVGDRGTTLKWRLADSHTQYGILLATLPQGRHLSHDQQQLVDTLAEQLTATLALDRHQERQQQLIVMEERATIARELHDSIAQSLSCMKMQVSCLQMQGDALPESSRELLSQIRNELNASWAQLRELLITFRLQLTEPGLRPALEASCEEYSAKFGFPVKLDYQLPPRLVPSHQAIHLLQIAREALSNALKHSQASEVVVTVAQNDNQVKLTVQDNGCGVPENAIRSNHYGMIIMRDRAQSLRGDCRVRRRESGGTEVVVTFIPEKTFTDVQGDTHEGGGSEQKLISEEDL
Text: As a first step towards understanding how TCSs can be integrated into cell-free systems, we tested the functional expression of NarX and NarL. The analyte for this sensor, nitrate, is a known ground water contaminate (30), serves as a convenient input, and previous work has characterized and engineered NarL mutants and its cognate promoter (26), ensuring that downstream gene transcription is a result of cell-free expressed NarL. We assembled cell-free reactions containing the myTXTL system (31), three DNA templates, liposomes, and assessed the reactions in response to nitrate addition. Two templates contained genes for either NarX or a NarL mutant (26) under the control of T7 RNA polymerase. The third template served as a genetic reporter for TCS signaling and contained a reporter gene (nanoluciferase) under the control of a promoter to which NarL binds (32). Finally, we included 100 nm lipid vesicles composed of 1,2-dimyristoyl-sn-glycero-3-phosphocholine (DMPC) into which NarX could integrate (FIG. 1A). Upon addition of nitrate, NarX should phosphorylate NarL, which should then bind the reporter plasmid and induce downstream luciferase expression (FIG. 1A).
(§1) Protein expression was performed using the myTxTl system (Arbor Biosceinces). 5 μL reactions were assembled with 10 mM lipid, 0.1 nM plasmid encoding T7 RNA polymerase, 9.9 nM plasmids encoding NarX, NarL, and reporter gene (nano luciferase or GFP) in specified ratios, and various concentration of ligands. Cell-free reactions were allowed to progress at 30° C. for 16 hours. Luciferase luminescence was read using the NanoGlo luciferase system and GFP fluorescence (ex. 480 nm, em. 507 nm) was read using a Molecular Devices Spectra Max i3 plate reader. To calculate fold change, luminescence values in the presence of nitrate were divided by the luminescence values in the absence of nitrate for each replicate.

NarX [2] = target: T1, NarX; assay: Cell-free NarX-L system encapsulated in giant unilamellar vesicles; format: biochemical, E. coli; settings: 1 mM nitrate, GUVs of POPC:cholesterol with rhodamine lipid, 30° C. 16 hours, with RNase
Text: Over the last decade, many promising cell-free systems have been developed, enabling the delivery and sensing of a wide array of ligands in non-ideal environments. Cell-free systems have been encapsulated and administered to mice (47), lyophilized and used in resource limited settings (6, 7), and integrated into wearable materials to sense environmental contaminants (8). Towards the goal of creating cell-mimetic particles which can sense environmental stimuli in complex environments, such as the body, we encapsulated our cell-free system into giant unilamellar vesicles using the emulsion transfer method (FIG. 5A). We encapsulated cell-free extract containing plasmids encoding NarX, NarL, and the downstream protein (luciferase or mEGFP) into membranes composed of 1 POPC: 1 cholesterol and a rhodamine conjugated lipid. We hypothesized that by encapsulating cell-free reaction components into vesicles, NarX could insert into membranes and initiate signaling in response to exogenously added nitrate. […]
For samples containing the luciferase plasmid, 0.5 μL of NanoGlo Luciferase substrate was added to the reaction, and reactions were read on a Molecular Devices Spectra Max i3 plate reader. […] Images were analyzed using the Nikon NIS software.

NarX [3] = target: T1, NarX; assay: Lyophilized NarX-L reactions rehydrated in non-ideal media; format: biochemical, E. coli; settings: 100 μM nitrate; rehydrated with Milli-Q water, lake water or FBS; 30° C.
Method: As a control, we flash froze reactions and allowed them to proceed without lyophilization. […] To remediate this, we lyophilized vesicles and reactions separately. When rehydrating reactions, we rehydrated vesicles with water and then mixed the rehydrated vesicles, lyophilized cell-free components, and rehydration media (water, lake water, or FBS) with or without 100 μM nitrate. We then allowed reactions to proceed at 30° C. […] To deploy biosensors out of the lab, one must understand how quickly they are able to sense a ligand. […] We furthermore envision that these systems could be leveraged to engineer targeted drug delivery systems or for point-of-use biosensing.
Cell-free reactions were prepared as above, omitting vesicles and ligand. Reactions and vesicles were then flash frozen and lyophilized overnight. Following lyophilization, vesicles were rehydrated in water and cell free reactions were rehydrated in various media, such as Mili-Q water, Lake Water from Lake Michigan, and 50% FBS containing either 100 μM nitrate or an equivalent volume of water. Vesicles and reactions were allowed to rehydrate for 30 minutes on ice. Finally, vesicles were added to each reaction to bring the total volume to 5 μL and reactions were allowed to proceed at 30° C. for 16 hours.

[4] = Dynamic light scattering of 100% POPC vesicles in the presence of ligands (liposome stability); format: physicochemical; settings: 100% POPC vesicles in the presence of 1 mM ligand
[5] = test system: cell-free protein synthesis; assay: Cell-free protein synthesis (myTXTL): NarX western blot band intensity and luminescence; format: biochemical, E. coli; settings: increasing ligand concentration; NarX band intensity / luminescence (FIG. 7, FIG. 14)
Method: as §1
1 μL of cell-free reaction was diluted to 15 μL in Laemlli buffer and heated at 95° C. for 10 minutes. Samples were then loaded and run on a 12% Mini-PROTEAN TGX Precast Protein Gel (Bio-Rad) at 150 V for 90 minutes. Wet transfer was performed onto a PVDF membrane (Bio-Rad) for 45 min at 100 V. Membranes were then blocked for an hour at room temperature in 5% milk in TBST (pH 7.6:50 mM Tris, 150 mM NaCl, HCl to pH 7.6, 0.1% Tween) and incubated for 1 hour at room temperature or overnight at 4° C. with primary solution (anti-Flag (Sigma F1804) or anti-Myc (ab32), diluted 1:1000 in 5% milk in TBST). Primary antibody solution was decanted, and the membrane was washed three times for 5 minutes in TBST and then incubated in secondary solution at room temperature for 1 hour (HRP-anti-Mouse (CST 7076) diluted 1:3000 in 5% milk in TBST). Membranes were then washed in TBST and incubated with Clarity Western ECL Substrate (Bio-Rad) for 5 min. Blots were imaged using an Azure Biosystems c280 imager and band intensities were quantified with ImageJ.

## O=[N+]([O-])[O-].[Na+] [Nitrate, sodium nitrate]
NarX [1]; absence of vesicles (FIG. 1C)
  increase in luminescence in nitrate titration: 2 fold
NarX [1]; all components present, DMPC vesicles (FIG. 1B)
  increase in luminescence compared to reactions run in the absence of nitrate: ~3 fold
NarX [1]; nitrate sample vs water sample, p<0.03, n=2 (FIG. 18)
  time to differentiate a positive from a negative signal (luminescence over time): 6.5 h
NarX [1]; nitrate titration
  nitrate concentration at which the cell-free system lost sensitivity: 10 mM
NarX [1]; nitrate titration, cell-free system
  detection of nitrate at levels as low as: 10 µM
NarX [1]; wild-type NarX, nitrate vs nickel (FIG. 4F)
  specificity of activation by ligand: specifically turn ‘on’
NarX [2]
  sensing of exogenously added nitrate by encapsulated sensor (microscopy and bulk plate reader): able to sense exogenous nitrate
NarX [3]
  sensing of nitrate after lyophilization and rehydration: could sense 100 μM nitrate in all conditions
[4]
  Diameter (nm): 123.26 nm
  P.D.I.: 0.278
[5]
  effect on cell-free protein expression: inhibit protein synthesis; also recorded: inhibits protein expression
